Like-named read-outs stand apart in the source and are kept apart here.
System: 280 human cancer cell lines
Assay: OncoPanel cell proliferation assay (10-day)
Type: cell-based
Settings: Homo sapiens; for IC50: read-out: Cell Count IC50; for EC50: read-out: Cell Count EC50
[1] = SW872, SW872, Soft Tissue - Sarcoma
[2] = SW 954, SW954, Female GU - Vulva
[3] = SW982, SW982, Soft Tissue - Sarcoma
[4] = SW1353, SW1353, Soft Tissue - Osteosarcoma
[5] = TE 125.T, Soft Tissue - Sarcoma
[6] = TE 381.T, Soft Tissue - Sarcoma
[7] = U2OS, Soft Tissue - Osteosarcoma
[8] = U-118-MG, U-118 MG, CNS - Glioma
[9] = VA-ES-BJ, Soft Tissue - Sarcoma
[10] = WM 266-4, WM-266-4, Skin (Melanoma)

## CC(C)=CCC[C@H](C)[C@@H]1CC[C@@H](C)c2c1cc(C)c(O)c2O [Compound 4, 7,8-dihydroxyserrulat-14-ene]
SW837, SW837, Colon, read-out: Cell Count GI50
  GI50: 18.7 µM
SW837, SW837, Colon
  IC50: 18.9 µM
[1]
  EC50: 4.39 µM
  IC50: 4.39 µM
SW872, SW872, Soft Tissue - Sarcoma, read-out: Cell Count GI50
  GI50: 4.38 µM
SW900, SW900, Lung - SCLC
  EC50: 23.3 µM
  IC50: 23.3 µM
SW900, SW900, Lung - SCLC, read-out: Cell Count GI50
  GI50: 23.1 µM
SW948, SW948, Colon
  EC50: 29.7 µM
  IC50: > 30 µM
SW948, SW948, Colon, read-out: Cell Count GI50
  GI50: > 30 µM
[2]
  EC50: 21.7 µM
  IC50: 21.7 µM
SW 954, SW954, Female GU - Vulva, read-out: Cell Count GI50
  GI50: 21.6 µM
[3]
  EC50: 7.29 µM
  IC50: 7.3 µM
SW982, SW982, Soft Tissue - Sarcoma, read-out: Cell Count GI50
  GI50: 7.26 µM
SW1088, SW1088, CNS - Glioma
  EC50: 8.77 µM
  IC50: 8.77 µM
SW1088, SW1088, CNS - Glioma, read-out: Cell Count GI50
  GI50: 8.69 µM
[4]
  EC50: 4.15 µM
  IC50: 4.15 µM
SW1353, SW1353, Soft Tissue - Osteosarcoma, read-out: Cell Count GI50
  GI50: 4.14 µM
SW1417, SW1417, Colon
  EC50: > 30 µM
  IC50: > 30 µM
SW1417, SW1417, Colon, read-out: Cell Count GI50
  GI50: 29.3 µM
SW1463, SW1463, Colon
  EC50: 29.4 µM
  IC50: 29.6 µM
SW1463, SW1463, Colon, read-out: Cell Count GI50
  GI50: 29.5 µM
SW1783, SW1783, CNS - Glioma
  EC50: 12.3 µM
  IC50: 12.3 µM
SW1783, SW1783, CNS - Glioma, read-out: Cell Count GI50
  GI50: 12.1 µM
SW-403, SW403, Colon
  EC50: > 30 µM
  IC50: > 30 µM
SW-403, SW403, Colon, read-out: Cell Count GI50
  GI50: > 30 µM
SW-620, SW620, Colon
  EC50: 11.3 µM
  IC50: 11.3 µM
SW-620, SW620, Colon, read-out: Cell Count GI50
  GI50: 11.3 µM
SiHa, Female GU - Cervix
  EC50: 11.3 µM
  IC50: 13.5 µM
SiHa, Female GU - Cervix, read-out: Cell Count GI50
  GI50: 13.2 µM
T24, Bladder
  EC50: 12.2 µM
  IC50: 12.2 µM
T24, Bladder, read-out: Cell Count GI50
  GI50: 12.2 µM
T47D, Breast
  EC50: 3.28 µM
  IC50: 3.28 µM
T47D, Breast, read-out: Cell Count GI50
  GI50: 2.92 µM
T98G, CNS - Glioma
  EC50: 24.5 µM
  IC50: 24.5 µM
T98G, CNS - Glioma, read-out: Cell Count GI50
  GI50: 24.5 µM
TCC-SUP, TCCSUP, Bladder
  EC50: 8.91 µM
  IC50: 8.91 µM
TCC-SUP, TCCSUP, Bladder, read-out: Cell Count GI50
  GI50: 8.67 µM
[5]
  EC50: 23.6 µM
  IC50: 23.6 µM
TE 125.T, Soft Tissue - Sarcoma, read-out: Cell Count GI50
  GI50: 17 µM
[6]
  EC50: 6.28 µM
  IC50: 6.28 µM
TE 381.T, Soft Tissue - Sarcoma, read-out: Cell Count GI50
  GI50: 6.08 µM
TF-1, Leukemia
  EC50: 6.57 µM
  IC50: 6.57 µM
TF-1, Leukemia, read-out: Cell Count GI50
  GI50: 6.26 µM
THP-1, Thp1, Leukemia
  EC50: 12 µM
  IC50: 12 µM
THP-1, Thp1, Leukemia, read-out: Cell Count GI50
  GI50: 11.9 µM
TUR, Lymphoma
  EC50: 8.98 µM
  IC50: 8.98 µM
TUR, Lymphoma, read-out: Cell Count GI50
  GI50: 8.98 µM
[7]
  EC50: 4.21 µM
  IC50: 4.21 µM
U2OS, Soft Tissue - Osteosarcoma, read-out: Cell Count GI50
  GI50: 4.2 µM
U138-MG, U-138MG, CNS - Glioma
  EC50: 25 µM
  IC50: 25 µM
U138-MG, U-138MG, CNS - Glioma, read-out: Cell Count GI50
  GI50: 24.9 µM
U266B1, Myeloma
  EC50: 10.1 µM
  IC50: 10.1 µM
U266B1, Myeloma, read-out: Cell Count GI50
  GI50: 9.81 µM
U-87 MG, CNS - Glioma
  EC50: 13.8 µM
  IC50: 13.8 µM
U-87 MG, CNS - Glioma, read-out: Cell Count GI50
  GI50: 13.6 µM
[8]
  EC50: 13.9 µM
  IC50: 13.9 µM
U-118-MG, U-118 MG, CNS - Glioma, read-out: Cell Count GI50
  GI50: 13.6 µM
UMUC3, UM-UC-3, Bladder
  EC50: 3.83 µM
  IC50: 3.83 µM
UMUC3, UM-UC-3, Bladder, read-out: Cell Count GI50
  GI50: 3.82 µM
[9]
  EC50: 15.2 µM
  IC50: 15.2 µM
VA-ES-BJ, Soft Tissue - Sarcoma, read-out: Cell Count GI50
  GI50: 15 µM
[10]
  EC50: 10.9 µM
  IC50: 10.9 µM
WM 266-4, WM-266-4, Skin (Melanoma), read-out: Cell Count GI50
  GI50: 10.8 µM
WiDr, Colon
  EC50: 12.8 µM
  IC50: 12.8 µM
WiDr, Colon, read-out: Cell Count GI50
  GI50: 12.8 µM
Y79, Eye
  EC50: 5.65 µM
  IC50: 5.65 µM
Y79, Eye, read-out: Cell Count GI50
  GI50: 5.34 µM
YAPC, Pancreas
  EC50: 18 µM
  IC50: 18.2 µM
YAPC, Pancreas, read-out: Cell Count GI50
  GI50: 18.2 µM
strong: Daudi, DOHH-2, GA-10, L-428, ST486, MX1, NALM-6, T47D, CEM-C1, A-673, read-out: GI50
  GI50: 1.23 to 2.92 µM
